Measurements as given in patent publication US9328099B2, “Cyanomethylpyrazole carboxamides as janus kinase inhibitors” (Merck Sharp & Dohme Corp., priority 2011, dated 2016).

Assays:
JAK1 = JAK1 (Homo sapiens (Human), UniProt P23458); assay: Jak Biochemical HTRF Assay, JAK1; settings: HTRF biochemical assay, GST-tagged catalytic domain; top concentration tested […]; read-out: JAK1 IC50
Source text: (§1) Jak Biochemical HTRF Assay Protocol
(§2) Subsequent reagent additions employed an Agilent Bravo.

JAK2 = JAK2 (Homo sapiens (Human), UniProt O60674); assay: Jak Biochemical HTRF Assay, JAK2; settings: HTRF biochemical assay, GST-tagged catalytic domain; top concentration tested […]
Source text: as §1, §2

JAK2, sequence (O60674 849-1124): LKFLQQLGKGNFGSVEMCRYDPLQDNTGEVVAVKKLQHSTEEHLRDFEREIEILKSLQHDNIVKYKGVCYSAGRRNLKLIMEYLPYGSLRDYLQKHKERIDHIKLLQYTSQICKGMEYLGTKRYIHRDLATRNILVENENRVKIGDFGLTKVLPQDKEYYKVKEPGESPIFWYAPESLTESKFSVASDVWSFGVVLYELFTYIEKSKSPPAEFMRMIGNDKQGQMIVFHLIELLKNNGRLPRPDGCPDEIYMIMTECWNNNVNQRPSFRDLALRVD
JAK1, sequence (P23458 875-1153): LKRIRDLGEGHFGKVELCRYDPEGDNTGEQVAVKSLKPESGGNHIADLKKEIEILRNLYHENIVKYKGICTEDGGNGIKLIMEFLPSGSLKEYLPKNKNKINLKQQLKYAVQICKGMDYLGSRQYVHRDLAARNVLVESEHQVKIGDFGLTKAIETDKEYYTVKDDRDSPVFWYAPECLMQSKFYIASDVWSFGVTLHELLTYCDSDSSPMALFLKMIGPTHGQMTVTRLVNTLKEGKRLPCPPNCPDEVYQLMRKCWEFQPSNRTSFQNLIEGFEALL

SMILES	IC50 (JAK1)	IC50 (JAK2)
Cc1ncccc1N1CCC(CC#N)(n2cc(C(N)=O)c(Nc3ccc(F)cc3)n2)CC1 [Example 3-29, 1-[4-(cyanomethyl)-1-(2-methylpyridin-3-yl)piperidin-4-yl]-3-[(4-fluorophenyl)amino]-1H-pyrazole-4-carboxamide]	9 nM	209 nM
N#CCC1(n2cc(C(N)=O)c(Nc3ccc(F)cc3)n2)CCN(Cc2ccon2)CC1 [Example 22-45, 1-[4-(cyanomethyl)-1-(isoxazol-3-ylmethyl)piperidin-4-yl]-3-[(4-fluorophenyl)amino]-1H-pyrazole-4-carboxamide]	2 nM	34 nM
CC(C)(C)OC(=O)N1CC(CC#N)(n2cc(C(N)=O)c(Nc3ccccc3)n2)C1 [Example 2-3, tert-butyl 3-[4-carbamoyl-3-(phenylamino)-1H-pyrazol-1-yl]-3-(cyanomethyl)azetidine-1-carboxylate]	8 nM	57 nM
CC(C)(C)OC(=O)N1CCC(CC#N)(n2cc(C(N)=O)c(Nc3cnc(C#N)nc3)n2)CC1 [Example 4-6, tert-butyl 4-{4-carbamoyl-3-[(2-cyanopyrimidin-5-yl)amino]-1H-pyrazol-1-yl}-4-(cyanomethyl)piperidine-1-carboxylate]	3 nM	38 nM
N#CCC1(n2cc(C(N)=O)c(Nc3ccccc3)n2)CCN(Cc2cccc(O)c2)CC1 [Example 21-11, 1-[4-(cyanomethyl)-1-(3-hydroxybenzyl)piperidin-4-yl]-3-(phenylamino)-1H-pyrazole-4-carboxamide]	0.3 nM	6 nM
N#CCC1(n2cc(C(N)=O)c(Nc3ccnc(F)c3)n2)CCN(Cc2cccc(F)c2)CC1 [Example 22-10, 1-[4-(cyanomethyl)-1-(3-fluorobenzyl)piperidin-4-yl]-3-[(2-fluoropyridin-4-yl)amino]-1H-pyrazole-4-carboxamide]	0.07 nM	3 nM
CC(C#N)C1(n2cc(C(N)=O)c(Nc3ccc(F)cc3)n2)CCN(C(=O)OC(C)(C)C)CC1 (stereo not drawn) [Example 5-1, tert-Butyl 4-(4-carbamoyl-3-((4-fluorophenyl)amino)-1H-pyrazol-1-yl)-4-(1-cyanoethyl)piperidine-1-carboxylate]	34 nM	162 nM
CC(C)(C)OC(=O)N1CCC(CC#N)(n2cc(C(N)=O)c(Nc3cccc(-c4ccccc4)c3)n2)CC1 [Example 15-3, tert-butyl 4-[3-(biphenyl-3-ylamino)-4-carbamoyl-1H-pyrazol-1-yl]-4-(cyanomethyl)piperidine-1-carboxylate]	341 nM	1050 nM
N#CCC1(n2cc(C(N)=O)c(Nc3ccc(F)cc3)n2)CCN(c2cc(C(F)(F)F)ccn2)CC1 [Example 3-55, 1-{4-(cyanomethyl)-1-[4-(trifluoromethyl)pyridin-2-yl]piperidin-4-yl}-3-[(4-fluorophenyl)amino]-1H-pyrazole-4-carboxamide]	1 nM	75 nM
COc1ncc(N2CCC(CC#N)(n3cc(C(N)=O)c(Nc4ccc(F)cc4)n3)CC2)cn1 [Example 3-25, 1-[4-(cyanomethyl)-1-(2-methoxypyrimidin-5-yl)piperidin-4-yl]-3-[(4-fluorophenyl)amino]-1H-pyrazole-4-carboxamide]	0.7 nM	21 nM
N#CCC1(n2cc(C(N)=O)c(Nc3ccc(F)cc3)n2)CCN(Cc2cccc(F)n2)CC1 [Example 22-46, 1-{4-(cyanomethyl)-1-[(6-fluoropyridin-2-yl)methyl]piperidin-4-yl}-3-[(4-fluorophenyl)amino]-1H-pyrazole-4-carboxamide]	3 nM	95 nM
COC(=O)c1ccc(Nc2nn(C3(CC#N)CCN(C(=O)OC(C)(C)C)CC3)cc2C(N)=O)cc1 [Example 9-2, tert-butyl 4-(4-carbamoyl-3-{[4-(methoxycarbonyl)phenyl]amino}-1H-pyrazol-1-yl)-4-(cyanomethyl)piperidine-1-carboxylate]	0.3 nM	9 nM
N#CCC1(n2cc(C(N)=O)c(Nc3ccc(F)cc3)n2)CCC(NCC(F)F)CC1 (stereo not drawn) [Example 40-77, Cis or trans 1-{1-(cyanomethyl)-4-[(2,2-difluoroethyl)amino]cyclohexyl}-3-[(4-fluorophenyl)amino]-1H-pyrazole-4-carboxamide]	0.7 nM	13 nM

The remaining lines, values ahead:

IC50 (JAK1)	IC50 (JAK2)	SMILES
0.09 nM	2 nM	N#CCC1(n2cc(C(N)=O)c(Nc3ccc(F)cc3)n2)CCC(Nc2ccccc2)CC1 (stereo not drawn) [Example 40-96, Cis or trans 1-[1-(cyanomethyl)-4-(phenylamino)cyclohexyl]-3-[(4-fluorophenyl)amino]-1H-pyrazole-4-carboxamide]
13 nM	225 nM	CC(=O)N1CCN(C2CCC(CC#N)(n3cc(C(N)=O)c(Nc4ccc(F)cc4)n3)CC2)CC1 (stereo not drawn) [Example 40-76, Cis or trans 1-[4-(4-acetylpiperazin-1-yl)-1-(cyanomethyl)cyclohexyl]-3-[(4-fluorophenyl)amino]-1H-pyrazole-4-carboxamide]
0.08 nM	2 nM	N#CCC1(n2cc(C(N)=O)c(Nc3ccnc(F)c3)n2)CCC(NCc2ccccc2F)CC1 (stereo not drawn) [Example 41-11, Cis or trans 1-{1-(cyanomethyl)-4-[(2-fluorobenzyl)amino]cyclohexyl}-3-[(2-fluoropyridin-4-yl)amino]-1H-pyrazole-4-carboxamide]
0.3 nM	15 nM	N#CCC1(n2cc(C(N)=O)c(Nc3ccnc(F)c3)n2)CCN(C(=O)C2CC(F)(F)C2)CC1 [Example 34-53, 1-{4-(cyanomethyl)-1-[(3,3-difluorocyclobutyl)carbonyl]piperidin-4-yl}-3-[(2-fluoropyridin-4-yl)amino]-1H-pyrazole-4-carboxamide]
1 nM	40 nM	N#CCC1(n2cc(C(N)=O)c(Nc3ccccc3)n2)CCN(C(=O)OC2CCOC2)CC1 (stereo not drawn) [Example 30-36, 4-carbamoyl-1-[4-(cyanomethyl)-1-{[(3R and 3S)-tetrahydrofuran-3-yloxy]carbonyl}piperidin-4-yl]-3-(phenylamino)-1H-pyrazol-2-ium]
13 nM	409 nM	N#CCC1(n2cc(C(N)=O)c(Nc3ccnc(F)c3)n2)CCC(Nc2cccc(F)c2)CC1 (stereo not drawn) [Example 40-55, Cis or trans 1-{1-(cyanomethyl)-4-[(3-fluorophenyl)amino]cyclohexyl}-3-[(2-fluoropyridin-4-yl)amino]-1H-pyrazole-4-carboxamide]
0.2 nM	11 nM	N#CCC1(n2cc(C(N)=O)c(Nc3ccc(F)cc3)n2)CCN(C(=O)OCC(F)(F)CO)CC1 [Example 30-11, 2,2-difluoro-3-hydroxypropyl 4-(4-carbamoyl-3-(4-fluorophenylamino)-1H-pyrazol-1-yl)-4-(cyanomethyl)piperidine-1-carboxylate]
1 nM	28 nM	N#CCC1(n2cc(C(N)=O)c(Nc3ccc(F)cc3)n2)CCN(Cc2ccco2)CC1 [Example 22-54, 1-[4-(cyanomethyl)-1-(furan-2-ylmethyl)piperidin-4-yl]-3-[(4-fluorophenyl)amino]-1H-pyrazole-4-carboxamide]
1 nM	35 nM	COC1CN(C2CCC(CC#N)(n3cc(C(N)=O)c(Nc4ccc(F)cc4)n3)CC2)C1 (stereo not drawn) [Example 40-74, Cis or trans 1-[1-(cyanomethyl)-4-(3-methoxyazetidin-1-yl)cyclohexyl]-3-[(4-fluorophenyl)amino]-1H-pyrazole-4-carboxamide]
3 nM	96 nM	COCC(=O)N1CCC(CC#N)(n2cc(C(N)=O)c(Nc3ccnc(F)c3)n2)CC1 [Example 34-42, 1-[4-(cyanomethyl)-1-(methoxyacetyl)piperidin-4-yl]-3-[(2-fluoropyridin-4-yl)amino]-1H-pyrazole-4-carboxamide]
0.06 nM	3 nM	N#CCC1(n2cc(C(N)=O)c(Nc3ccnc(F)c3)n2)CCC(Nc2ccc(Cl)cc2)CC1 (stereo not drawn) [Example 40-61, Cis or trans 1-{4-[(4-chlorophenyl)amino]-1-(cyanomethyl)cyclohexyl}-3-[(2-fluoropyridin-4-yl)amino]-1H-pyrazole-4-carboxamide]
0.9 nM	42 nM	N#CCC1(n2cc(C(N)=O)c(Nc3ccnc(F)c3)n2)CCN(C(=O)CC2CCCO2)CC1 (stereo not drawn) [Example 34-39, 1-[4-(cyanomethyl)-1-(tetrahydrofuran-2-ylacetyl)piperidin-4-yl]-3-[(2-fluoropyridin-4-yl)amino]-1H-pyrazole-4-carboxamide]
1 nM	16 nM	N#CCC1(n2cc(C(N)=O)c(Nc3ccccc3)n2)CCN(C(=O)C2CC2)CC1 [Example 34-1, 1-[4-(Cyanomethyl)-1-(cyclopropylcarbonyl)piperidin-4-yl]-3-(phenylamino)-1H-pyrazole-4-carboxamide]
5 nM	123 nM	N#CCC1(n2cc(C(N)=O)c(Nc3ccc(F)cc3)n2)CCN(C(=O)OCC2CCOC2)CC1 (stereo not drawn) [Example 30-22, tetrahydrofuran-3-ylmethyl 4-{4-carbamoyl-3-[(4-fluorophenyl)amino]-1H-pyrazol-1-yl}-4-(cyanomethyl)piperidine-1-carboxylate]
0.3 nM	15 nM	N#CCC1(n2cc(C(N)=O)c(Nc3ccc(F)cc3)n2)CCN(C(=O)OCC(F)(F)F)CC1 [Example 30-2, 2,2,2-trifluoroethyl 4-(4-carbamoyl-3-(4-fluorophenylamino)-1H-pyrazol-1-yl)-4-(cyanomethyl)piperidine-1-carboxylate]
4 nM	120 nM	N#CCC1(n2cc(C(N)=O)c(Nc3ccc(F)cc3)n2)CCN(C(=O)OC2CCCOC2)CC1 (stereo not drawn) [Example 30-25, tetrahydro-2H-pyran-3-yl 4-{4-carbamoyl-3-[(4-fluorophenyl)amino]-1H-pyrazol-1-yl}-4-(cyanomethyl)piperidine-1-carboxylate]
5 nM	77 nM	N#CCC(=O)N1CCC(CC#N)(n2cc(C(N)=O)c(Nc3ccccc3)n2)CC1 [Example 36-1, 1-[1-(Cyanoacetyl)-4-(cyanomethyl)piperidin-4-yl]-3-(phenylamino)-1H-pyrazole-4-carboxamide]
